The values that follow are results of earlier work, collected in patent US9308173B2, “Slow-releasing ophthalmic compositions comprising povidone iodine” (JIANGSU DEDA PHARMACEUTICALS CO., LTD., priority 2011, dated 2016).

Where two headings read alike, the source gives them in different places.

In the series the test system is infected eyes.

Turning to Povidone iodine [PVP-I], the “Toxicity and irritation to the eye” value (0.02% eye drop (Grimes et al. 1992)) was “without the toxic affection and irritation”. Moreover, the Germicidal effect entry (0.02% eye drop, infected eyes treated repeatedly (Grimes et al. 1992)) is recorded as “same germicidal effects as one with concentration of 5.0% povidone iodine”. The “Toxicity to the eye” value (0.04% eye drops, clinical disinfection of eyes) was “no noticeable toxicity” and the “Toxicity to the eye” value (eye drops at high concentrations of 5%) is given as “toxic effects that cannot be ignored”.
